Source: publication PMC8349882 (Molecular cell, 2021)

Molecular target: GLR3.4-S1S2 (Arabidopsis thaliana, UniProt Q8GXJ4, DEL602-708)
Experiment: crystal structure
Type: binding
Conditions: endogenous ligand from expression, none added

Sequence of GLR3.4-S1S2 (Q8GXJ4 492-601, stated change not applied): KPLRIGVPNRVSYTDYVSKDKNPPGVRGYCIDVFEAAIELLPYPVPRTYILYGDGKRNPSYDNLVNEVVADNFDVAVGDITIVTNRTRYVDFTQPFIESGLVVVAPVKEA
Sequence of GLR3.4-S1S2 (Q8GXJ4 709-842, stated change not applied): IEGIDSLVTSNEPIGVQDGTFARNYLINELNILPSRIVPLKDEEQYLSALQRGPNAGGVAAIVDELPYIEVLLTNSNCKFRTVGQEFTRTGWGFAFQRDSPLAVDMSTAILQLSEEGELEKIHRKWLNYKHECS

## N[C@@H](CO)C(=O)O [serine]
  crystal structure: The serine-bound LBD structure was solved without adding the ligand to the protein
